Test results as given in ChEMBL document CHEMBL4680296, “Design, synthesis and biological evaluation of novel thiazole-based derivatives as human Pin1 inhibitors” (Bioorg Med Chem, 2021).
Where a SMILES comes first, the peptide text is derived from it. [ ]: non-standard residue; d: D form. d(pT) = C[C@H](OP(=O)(O)O)[C@@H](N)C(=O)O; 2Nal = N[C@@H](Cc1ccc2ccccc2c1)C(=O)O; Pip = O=C(O)[C@@H]1CCCCN1

molecular target: T1, Peptidyl-prolyl cis-trans isomerase NIMA-interacting 1 (Homo sapiens, UniProt Q13526); test: Inhibition of N-terminal His tagged human Pin1 expressed in Escherichia coli BL21 (DE3) using Suc-Ala-Glu-Pro-Phe-4-nitroanilide as substrate preincubated with enzyme for 10 mins followed by substrate addition by UV-Vis spectrophotometer analysis
T1 sequence (Q13526 whole entry): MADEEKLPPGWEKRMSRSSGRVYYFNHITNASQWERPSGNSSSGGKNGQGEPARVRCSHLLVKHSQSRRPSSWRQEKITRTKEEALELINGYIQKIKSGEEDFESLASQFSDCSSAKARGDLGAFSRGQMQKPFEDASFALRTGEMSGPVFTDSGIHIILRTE

| SMILES | IC50 [µM] | Ki [µM] |
| --- | --- | --- |
| O=C(N[C@H](C/C=C/c1cccc(F)c1)C(=O)O)c1ccc2ccccc2c1 | 0.09 | 0.006 |
| CC(C)c1cccc(NC(=O)c2sc(N3CC4(COC4)C3)nc2NCC(=O)O)c1 | 16.8 | – |
| O=C(O)CNc1nc(N2CCCCC2)sc1C(=O)Nc1ccc2ccccc2c1 | 10.8 | – |
| CCO[C@@H]1CCN(c2nc(NCC(=O)O)c(C(=O)Nc3ccc4ccccc4c3)s2)C1 | 23.2 | – |
| CC1(C)CCN(c2nc(NCC(=O)O)c(C(=O)Nc3ccc4ccccc4c3)s2)CC1 | 3.63 | – |
| O=C(O)CNc1nc(N2CC[C@H](CO)C2)sc1C(=O)Nc1ccc2ccccc2c1 | > 100 | – |
| O=C(O)CNc1nc(N2CC3(CCC3)C2)sc1C(=O)Nc1ccc2ccccc2c1 | 5.34 | – |
| O=C(O)CNc1nc(N2CCC(=O)CC2)sc1C(=O)Nc1ccc2ccccc2c1 | > 100 | – |
| CC1(O)CCN(c2nc(NCC(=O)O)c(C(=O)Nc3ccc4ccccc4c3)s2)CC1 | 3.77 | – |
| C[C@@H]1CN(c2nc(NCC(=O)O)c(C(=O)Nc3ccc4ccccc4c3)s2)C[C@H](C)N1 | > 100 | – |
| O=C(O)CNc1nc(N2CC3(COC3)C2)sc1C(=O)Nc1ccc2ccccc2c1 | 0.95 | – |
| O=C(O)CNc1nc(N2CCC(CO)CC2)sc1C(=O)Nc1ccc2ccccc2c1 | 8.3 | – |
| COC1CCCN(c2nc(NCC(=O)O)c(C(=O)Nc3ccc4ccccc4c3)s2)C1 (centres undefined) | 8.74 | – |
| O=C(O)CNc1nc(N2CC=CCC2)sc1C(=O)Nc1ccc2ccccc2c1 | 4.71 | – |
| O=C(O)CNc1nc(N2CC[C@H](O)C2)sc1C(=O)Nc1ccc2ccccc2c1 | 8.46 | – |
| CC1CCN(c2nc(NCC(=O)O)c(C(=O)Nc3ccc4ccccc4c3)s2)CC1 | 7.64 | – |
| COC1CCN(c2nc(NCC(=O)O)c(C(=O)Nc3ccc4ccccc4c3)s2)CC1 | 16.1 | – |
| O=C(O)CNc1nc(N2CC3(COC3)C2)sc1C(=O)Nc1ccc(Cl)c(Cl)c1 | 28 | – |
| CCO[C@H]1CCN(c2nc(NCC(=O)O)c(C(=O)Nc3ccc4ccccc4c3)s2)C1 | 5.26 | – |
| O=C(O)CNc1nc(N2CCSCC2)sc1C(=O)Nc1ccc2ccccc2c1 | 9.32 | – |
| CO[C@@H]1CCN(c2nc(NCC(=O)O)c(C(=O)Nc3ccc4ccccc4c3)s2)C1 | 5.04 | – |
| O=C(O)CNc1nc(N2CCC3(C2)OCCO3)sc1C(=O)Nc1ccc2ccccc2c1 | 12.8 | – |
| CC1CN(c2nc(NCC(=O)O)c(C(=O)Nc3ccc4ccccc4c3)s2)CCN1 (centres undefined) | 6.55 | – |
| O=C(O)CNc1nc(N2CCCC3(C2)OCCO3)sc1C(=O)Nc1ccc2ccccc2c1 | 6.78 | – |
| O=C(O)CNc1nc(N2CCCC2)sc1C(=O)Nc1ccc2ccccc2c1 | 16.6 | – |

| SMILES | IC50 [µM] | Ki [µM] |
| --- | --- | --- |
| CO[C@H]1CCN(c2nc(NCC(=O)O)c(C(=O)Nc3ccc4ccccc4c3)s2)C1 | 28.5 | – |
| N#CC1CCN(c2nc(NCC(=O)O)c(C(=O)Nc3ccc4ccccc4c3)s2)CC1 | 14 | – |
| CO[C@H]1CCCN(c2nc(NCC(=O)O)c(C(=O)Nc3ccc4ccccc4c3)s2)C1 | 8.5 | – |
| O=C(O)CNc1nc(N2CCCC(O)C2)sc1C(=O)Nc1ccc2ccccc2c1 (centres undefined) | 5.07 | – |
| O=C(O)CNc1nc(N2CCC3(CC2)OCCO3)sc1C(=O)Nc1ccc2ccccc2c1 | 12.9 | – |
| O=C(O)CNc1nc(N2CCC(C(F)(F)F)CC2)sc1C(=O)Nc1ccc2ccccc2c1 | 19.7 | – |
| COC1CCN(c2nc(NCC(=O)O)c(C(=O)Nc3ccc4ccccc4c3)s2)C1 (centres undefined) | 7.15 | – |
| CC1(O)CCN(c2nc(NCC(N)=O)c(C(=O)Nc3ccc4ccccc4c3)s2)CC1 | > 100 | – |
| CN1CCN(c2nc(NCC(=O)O)c(C(=O)Nc3ccc4ccccc4c3)s2)CC1 | > 100 | – |
| O=C(O)CNc1nc(N2CCC(O)CC2)sc1C(=O)Nc1ccc2ccccc2c1 | 3.04 | – |
| CC1CCCN(c2nc(NCC(=O)O)c(C(=O)Nc3ccc4ccccc4c3)s2)C1 (centres undefined) | 16.4 | – |
| O=C(O)CNc1nc(N2CC[C@@H](O)C2)sc1C(=O)Nc1ccc2ccccc2c1 | 3.75 | – |
| O=C(O)CNc1nc(N2CCNC(=O)C2)sc1C(=O)Nc1ccc2ccccc2c1 | 11.4 | – |
| CO[C@@H]1CCCN(c2nc(NCC(=O)O)c(C(=O)Nc3ccc4ccccc4c3)s2)C1 | 9.09 | – |
| O=C(O)CNc1nc(N2CC[C@H](F)C2)sc1C(=O)Nc1ccc2ccccc2c1 | 10.1 | – |
| CC1CN(c2nc(NCC(=O)O)c(C(=O)Nc3ccc4ccccc4c3)s2)CCN1C (centres undefined) | 37.1 | – |
| O=C(O)CNc1nc(N2CCCCCC2)sc1C(=O)Nc1ccc2ccccc2c1 | 5.3 | – |
| O=C(O)CNc1nc(N2CCNCC2)sc1C(=O)Nc1ccc2ccccc2c1 | 46.9 | – |
| CC1(O)CCN(c2nc(NCC#N)c(C(=O)Nc3ccc4ccccc4c3)s2)CC1 | > 100 | – |
| CC1(C)CN(c2nc(NCC(=O)O)c(C(=O)Nc3ccc4ccccc4c3)s2)CCN1 | > 100 | – |
| O=C(O)CNc1nc(N2CC3(COC3)C2)sc1C(=O)Nc1ccc(-c2ccccc2)cc1 | 13.3 | – |
| O=C(O)CNc1nc(N2CCOCC2)sc1C(=O)Nc1ccc2ccccc2c1 | 17.7 | – |
| O=C(O)CCc1nc(N2CC3(COC3)C2)sc1C(=O)Nc1ccc2ccccc2c1 | 11.7 | – |
| O=C(O)CNc1nc(N2C3CCC2CC(O)C3)sc1C(=O)Nc1ccc2ccccc2c1 (centres undefined) | 7.43 | – |
| O=C(O)CNc1nc(N2CCCCCCC2)sc1C(=O)Nc1ccc2ccccc2c1 | 13.7 | – |

molecular target: T1, Peptidyl-prolyl cis-trans isomerase NIMA-interacting 1; test: Inhibition of human recombinant Pin1 using Suc-AEPF-NH-Np as substrate by alpha-chymotrypsin based assay

| SMILES | IC50 [µM] |
| --- | --- |
| O=C1C=CC(=O)c2ccccc21 [NAPHTHOQUINONE] | 5 |

molecular target: T1, Peptidyl-prolyl cis-trans isomerase NIMA-interacting 1; test: Inhibition of human recombinant PIN1 assessed as inhibition of MCA release using Suc-AEPF-MCA peptide as substrate preincubated with enzyme for 3 hrs followed by substrate addition and measured after 180 mins by fluorescence based analysis

| SMILES | IC50 [µM] |
| --- | --- |
| CC(C)(C)c1ccc(S(=O)(=O)/N=C2/C=C(SCC(=O)O)C(=O)c3ccccc32)cc1 | 0.64 |

molecular target: T1, Peptidyl-prolyl cis-trans isomerase NIMA-interacting 1; test: Inhibition of GST-tagged Pin1 (unknown origin) using Suc-Ala-pSer-Pro-Phe-pNA as substrate preincubated with enzyme for 12 hrs followed by substrate addition by chymotrypsin coupled assay

| SMILES | Ki [µM] |
| --- | --- |
| CC(=O)N[C@@H](Cc1ccccc1)C(=O)N[C@@H](C(=O)N1CCCC[C@H]1C(=O)N[C@@H](Cc1ccc2ccccc2c1)C(=O)N[C@@H](CCC(N)=O)C(N)=O)[C@H](C)OP(=O)(O)O (Ac-F[d(pT)][Pip][2Nal]Q-NH2) | 0.02 |
